# Reference: patent US20040005537A1, “Method of identifying toxic agents using differential gene expression” (priority 2000, published 2004)
# Legend:
# rat heart tissue = test: GENECALLING differential gene expression analysis after dosing of serotonin modulating agents; format: in vivo, Sprague Dawley rats
# In short: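 GENECALLING profiling of cDNA from total RNA, keeping gene fragments modulated beyond ±1.5-fold. Tissue collected 24 h after final dosing of serotonin modulating agents; control rats received sterile water or canola oil.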
# [1] = cited from earlier work
smiles,measurement,setting,value
CCN[C@@H](C)Cc1cccc(C(F)(F)F)c1 [dexfenfluramine],"Effects on Transcription Level: Novel gene fragment, 445 bp, 85% SI to human skeletal muscle alpha 2 actinin [M86406]",rat heart tissue; CARDIOTOX 72,−1.7 fold
same,"Effects on Transcription Level: Novel gene fragment, 246 bp, 89% SI to mouse ponsin-1 [AF078667]",rat heart tissue; CARDIOTOX 73,−3.1 fold
same,"Effects on Transcription Level: Novel gene fragment, 126 bp, 77% SI to human DNA sequence from cosmid V311G7, between markers DXS366 and DXS87 on chromosome X [Z69304]",rat heart tissue; CARDIOTOX 74,+2.0 fold
same,"Effects on Transcription Level: Novel gene fragment, 370 bp",rat heart tissue; CARDIOTOX 75,−2.6 fold
same,"Effects on Transcription Level: Novel gene fragment, 337 bp, 78% SI to novel human protein AHNAK [M80899]",rat heart tissue; CARDIOTOX 76,−4.2 fold
same,"Effects on Transcription Level: Novel gene fragment, 100 bp, 93% SI to human KIAA0750 protein [ABO18293]",rat heart tissue; CARDIOTOX 77,−7.5 fold
same,"Effects on Transcription Level: Novel gene fragment, 44 bp",rat heart tissue; CARDIOTOX 78,−6.5 fold
same,"Effects on Transcription Level: Novel gene fragment, 698 bp, 93% SI to mouse plenty-of-prolines-101 [AF062655]",rat heart tissue; CARDIOTOX 79,−2.3 fold
same,"Effects on Transcription Level: Novel gene fragment, 660 bp, 84% SI to mouse membrane protein TMS-2 [AF181685]",rat heart tissue; CARDIOTOX 80,−3.6 fold
same,"Effects on Transcription Level: Novel gene fragment, 115 bp",rat heart tissue; CARDIOTOX 81,−4.0 fold
same,"Effects on Transcription Level: Novel gene fragment, 294 bp, 95% SI to mouse Ndr1 related protein Ndr2 [AB033921]",rat heart tissue; CARDIOTOX 82,−2.0 fold
same,"Effects on Transcription Level: Novel gene fragment, 198 bp",rat heart tissue; CARDIOTOX 83,+2.5 fold
same,"Effects on Transcription Level: Novel gene fragment, 730 bp, 86% SI to mouse E800 [Y10968]",rat heart tissue; CARDIOTOX 84,−2.0 fold
same,"Effects on Transcription Level: Novel gene fragment, 294 bp, 98% SI to cysteine conjugate beta-lyase [S61960]",rat heart tissue; CARDIOTOX 85,−2.0 fold
same,Effects on Transcription Level: Aconitase,"rat heart tissue; CARDIOTOX 86, GenBank A1243266",−3.1 fold
same,Effects on Transcription Level: Ribosomal protein L7,"rat heart tissue; CARDIOTOX 87, GenBank M17422",+2.5 fold
same,Effects on Transcription Level: Ribosomal protein L9,"rat heart tissue; CARDIOTOX 88, GenBank X51706",+10.0 fold
same,Effects on Transcription Level: Ribosomal protein L12,"rat heart tissue; CARDIOTOX 89, GenBank X53504",−2.2 fold
same,"Effects on Transcription Level: 18S, 5.8S, and 28S ribosomal RNA's","rat heart tissue; CARDIOTOX 90, GenBank V01270",+5 fold
same,Effects on Transcription Level: Pyruvate dehydrogenase kinase 2 (PDK2),"rat heart tissue; CARDIOTOX 91, GenBank U10357",−6.9 fold
same,Effects on Transcription Level: D-Binding Protein (DBP),"rat heart tissue; CARDIOTOX 92, GenBank J03179",−1.9 fold
same,Effects on Transcription Level: Lipoprotein lipase,"rat heart tissue; CARDIOTOX 93, GenBank L03294",−2.2 fold
same,Effects on Transcription Level: Non-neuronal enolase,"rat heart tissue; CARDIOTOX 94, GenBank X02610",+3.5 fold
same,Effects on Transcription Level: Glycogen phosphorylase (muscle isozyme),"rat heart tissue; CARDIOTOX 95, GenBank L10669",−2.0 fold
same,Effects on Transcription Level: Cytochrome c oxidase subunit IV,"rat heart tissue; CARDIOTOX 96, GenBank X14209",+10.0 fold
same,Effects on Transcription Level: Alpha-globin,"rat heart tissue; CARDIOTOX 97, GenBank M17083",+3.0 fold
same,Effects on Transcription Level: Beta-globin,"rat heart tissue; CARDIOTOX 98, GenBank X06701",+3.1 fold
same,Effects on Transcription Level: Myoglobin,"rat heart tissue; CARDIOTOX 99, GenBank AF197916",+4.7 fold
same,Effects on Transcription Level: Titin,"rat heart tissue; CARDIOTOX 100, GenBank L38717",−2.0 fold
same,Effects on Transcription Level: Skeletal muscle actin,"rat heart tissue; CARDIOTOX 101, GenBank V01218",−18.2 fold
same,Effects on Transcription Level: Myosin light chain 2 (MLC2),"rat heart tissue; CARDIOTOX 102, GenBank M11851",+2.6 fold
same,Effects on Transcription Level: Alpha cardiac myosin heavy chain,"rat heart tissue; CARDIOTOX 103, GenBank X15938",−3.4 fold
same,Effects on Transcription Level: Troponin I,"rat heart tissue; CARDIOTOX 104, GenBank U77354",+1.8 fold
same,Effects on Transcription Level: Cardiac calsequestrin,"rat heart tissue; CARDIOTOX 105, GenBank AF001334",−2.9 fold
same,Effects on Transcription Level: Sulfated glycoprotein 2,"rat heart tissue; CARDIOTOX 106, GenBank M16975",−1.8 fold
same,Effects on Transcription Level: Aquaporin 7,"rat heart tissue; CARDIOTOX 107, GenBank AB000507",+1.5 fold
same,Effects on Transcription Level: Carnitine/acylcarnitine carrier protein,"rat heart tissue; CARDIOTOX 108, GenBank X97831",−2.5 fold
same,Effects on Transcription Level: Glu-Pro Dipeptide Repeat,"rat heart tissue; CARDIOTOX 109, GenBank U40628",−5.0 fold
same,Effects on Transcription Level: Cystatin beta,"rat heart tissue; CARDIOTOX 110, GenBank X54737",+2.5 fold
same,"Effects on Transcription Level: Novel gene fragment, 593 bp, 90% SI to human calcineurin B-like protein [Z08983]",rat heart tissue; CARDIOTOX 111,+1.9 fold
same,"Effects on Transcription Level: Novel gene fragment, 179 bp, 88% SI to human titin [X90568]",rat heart tissue; CARDIOTOX 112,−3.1 fold
same,"Effects on Transcription Level: Novel gene fragment, 700 bp, 91% SI to mouse periplakin (PPL) [AF116523]",rat heart tissue; CARDIOTOX 113,+2.5 fold
same,Effects on Transcription Level: Long chain acyl-CoA dehydrogenase (LCAD),"rat heart tissue; CARDIOTOX 114, GenBank J05029",+1.7 fold
same,Effects on Transcription Level: Sulfated glycoprotein 1 (SGP-1),"rat heart tissue; CARDIOTOX 115, GenBank M19936",−1.7 fold
same,Effects on Transcription Level: Catalase,"rat heart tissue; CARDIOTOX 116, GenBank M11670",+2.1 fold
same,Effects on Transcription Level: Alpha-fodrin (A2A) (Nonerythroid spectrin alpha subunit),"rat heart tissue; CARDIOTOX 117, GenBank AF084186",−1.7 fold
same,Effects on Transcription Level: Cardiac specific sodium channel alpha-subunit,"rat heart tissue; CARDIOTOX 118, GenBank M27902",−2.0 fold
same,Effects on Transcription Level: Glu-Pro Dipeptide Repeat,"rat heart tissue; CARDIOTOX 119, GenBank U40628",+4.6 fold
same,"Effects on Transcription Level: Novel gene fragment, 200 bp, 64% SI to human KIAA0733 protein [AB018316]",rat heart tissue; CARDIOTOX 120,−1.6 fold
same,Effects on Transcription Level: RNA polymerase II transcription factor SIII (p18 subunit),"rat heart tissue; CARDIOTOX 121, GenBank L42855",+2.0 fold
same,Effects on Transcription Level: Protein-tyrosine phosphalase (LRP),"rat heart tissue; CARDIOTOX 122, GenBank L01702",+1.7 fold
same,Effects on Transcription Level: Skeletal muscle selenoprotein W (SelW),"rat heart tissue; CARDIOTOX 123, GenBank U25264",−1.6 fold
same,Effects on Transcription Level: Sarcoplasmic reticulum 2+-Ca-ATPase,"rat heart tissue; CARDIOTOX 124, GenBank X15635",−2.0 fold
same,Effects on Transcription Level: Ribosomal protein S7,"rat heart tissue; CARDIOTOX 125, GenBank X53377",+1.7 fold
same,Effects on Transcription Level: Ribophorin I,"rat heart tissue; CARDIOTOX 126, GenBank X05300",+2.0 fold
same,Effects on Transcription Level: Beta cardiac myosin heavy chain,"rat heart tissue; CARDIOTOX 127, GenBank X15939",+2.4 fold
same,Effects on Transcription Level: ADP-ribosylation factor 1,"rat heart tissue; CARDIOTOX 128, GenBank L12380",+1.1 fold
same,Effects on Transcription Level: Laminin receptor,"rat heart tissue; CARDIOTOX 129, GenBank U04942",+2.6 fold
same,"Effects on Transcription Level: Novel gene fragment, 206 bp, 89% SI to human seryl-tRNA synthetase [X91257]",rat heart tissue; CARDIOTOX 130,+1.8 fold
same,Effects on Transcription Level: Annexin VI,"rat heart tissue; CARDIOTOX 131, GenBank X86086",−10.0 fold
same,"Effects on Transcription Level: Novel gene fragment, 325 bp, 90% SI to mouse N-RAP [U76618]",rat heart tissue; CARDIOTOX 132,+1.7 fold
same,"Effects on Transcription Level: Novel gene fragment, 61 bp (CARDIOTOX 134)",rat heart tissue; LD10 dose for three days,−1.8 fold
same,"Effects on Transcription Level: Novel gene fragment, 337 bp (CARDIOTOX 133)",rat heart tissue; LD10 dose for three days,−2.0 fold
same,"Effects on Transcription Level: Novel gene fragment, 378 bp, 88% SI to human coatomer protein (COPA) [U24105] (CARDIOTOX 138)",rat heart tissue; LD10 dose for three days,−2.0 fold
same,Effects on Transcription Level: Long chain 3-ketoacyl-CoA thiolase (CARDIOTOX 136),"rat heart tissue; LD10 dose for three days, GenBank D16479",−1.5 fold
same,Effects on Transcription Level: TATA-binding protein interacting protein 120 (TIP120) (CARDIOTOX 135),"rat heart tissue; LD10 dose for three days, GenBank D87671",+2.3 fold
same,Effects on Transcription Level: Serine protease (CARDIOTOX 139),"rat heart tissue; LD10 dose for three days, GenBank D88250",+1.6 fold
same,Effects on Transcription Level: Thymosin beta-4 (CARDIOTOX 137),"rat heart tissue; LD10 dose for three days, GenBank M34043",+1.4 fold
same,Effects on Transcription Level: Annexin VI (no CARDIOTOX assignment given),"rat heart tissue; LD10 dose for three days, GenBank X86086",−5.1 fold
same,classification as cardiotoxic or noncardiotoxic serotonin modulating agent,[1]; grouping used to generate the distinguishing gene profiles,cardiotoxic
same,side effect reported in a subset of patients,[1]; patients to which they are administered,valvular heart disease
